Numbered stars: 1 amine (or outer) side, 2 acyl side, 3 side chain; on linkers, the order of the positions; unused ones are H or OH. Bridge positions count the residues as written; N and C are the ends. Square brackets hold non-standard residues; d marks the D form. Side chains are listed from the residue outwards. Peptide text beside a SMILES is read from it. * marks the point of attachment. C20 diacid = O=C(O)CCCCCCCCCCCCCCCCCCC(=O)*; C18 diacid = O=C(O)CCCCCCCCCCCCCCCCC(=O)*; γGlu = O=C(O)[C@H](CCC(=O)[*:2])N[*:1]; cisHyp = O=C(O)[C@@H]1C[C@H](O)CN1; Hyp = O=C(O)[C@@H]1C[C@@H](O)CN1; AEEA = NCCOCCOCC(=O)O; Sar = CNCC(=O)O
Target: T1, human amylin receptor (Homo sapiens, UniProt O60896+P30988)
T1 construct: host or cells: CHO-K1/Ga15/AMY3 cells, further stably transfected with a CRE-luciferase plasmid
T1 sequence (P30988 25-474): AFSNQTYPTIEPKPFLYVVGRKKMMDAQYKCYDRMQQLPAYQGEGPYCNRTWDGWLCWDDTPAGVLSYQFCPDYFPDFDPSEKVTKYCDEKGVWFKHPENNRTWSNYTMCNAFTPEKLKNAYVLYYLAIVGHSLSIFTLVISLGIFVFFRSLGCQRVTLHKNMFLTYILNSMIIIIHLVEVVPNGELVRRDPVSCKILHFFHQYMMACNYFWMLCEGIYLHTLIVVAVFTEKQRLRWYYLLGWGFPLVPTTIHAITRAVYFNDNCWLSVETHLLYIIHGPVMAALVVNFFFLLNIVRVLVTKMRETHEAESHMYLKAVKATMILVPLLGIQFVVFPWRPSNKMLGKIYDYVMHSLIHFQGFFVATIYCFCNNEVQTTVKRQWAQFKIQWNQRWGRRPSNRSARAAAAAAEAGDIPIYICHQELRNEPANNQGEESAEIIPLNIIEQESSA
T1 sequence (O60896 24-148 partner): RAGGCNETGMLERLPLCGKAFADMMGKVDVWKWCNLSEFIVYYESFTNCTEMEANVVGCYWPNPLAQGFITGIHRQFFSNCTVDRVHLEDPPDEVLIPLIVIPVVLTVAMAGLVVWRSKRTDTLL
Test: Luciferase assay of amylin derivatives in amylin receptor/CRE-luc CHO cell line
Assay type: cell-based
Conditions: CHO-K1/Ga15/AMY3 CRE-luc cells, 24 hours incubation, F12 medium containing 10% FBS; read-out: EC50
Procedure: The experiment was intended to detect the activity or efficacy of the amylin derivatives on a human amylin receptor in vitro by luciferase assay.
50 μL of growth medium (F12 medium containing 10% FBS) was added into each well of a white 96-well plate, and the stably transfected amylin/CRE-lue CHO cells were inoculated into the white 96-well plate at a density of about 20,000 cells/well for activity determination.

| Structure (SMILES) | EC50 |
| --- | --- |
| CC[C@H](C)[C@H](NC(=O)[C@@H]1CCCN1C(=O)CNC(=O)[C@H](CCCCNC(=O)COCCOCCNC(=O)CC[C@H](NC(=O)CCCCCCCCCCCCCCCCC(=O)O)C(=O)O)NC(=O)[C@H](CC(N)=O)NC(=O)[C@H](CC(N)=O)NC(=O)[C@H](CO)NC(=O)[C@H](CO)NC(=O)[C@H](Cc1c[nH]cn1)NC(=O)[C@H](CCCNC(=N)N)NC(=O)[C@H](CC(C)C)NC(=O)[C@H](Cc1ccccc1)NC(=O)[C@H](CC(=O)O)NC(=O)[C@H](C)NC(=O)[C@H](CC(C)C)NC(=O)[C@H](CCCNC(=N)N)NC(=O)[C@H](CCC(N)=O)NC(=O)[C@@H](NC(=O)[C@H](C)NC(=O)[C@@H]1CSSC[C@H](NC(=O)[C@@H](N)CCCNC(=N)N)C(=O)N[C@@H](CC(N)=O)C(=O)N[C@@H]([C@@H](C)O)C(=O)N[C@@H](C)C(=O)N[C@@H]([C@@H](C)O)C(=O)N1)[C@@H](C)O)C(=O)N[C@@H](CC(C)C)C(=O)N1CCC[C@H]1C(=O)N1CCC[C@H]1C(=O)N[C@H](C(=O)N[C@@H](CC(N)=O)C(=O)N[C@H](C(=O)NCC(=O)N[C@@H](CO)C(=O)N[C@@H](CC(N)=O)C(=O)N[C@H](C(=O)N1C[C@H](O)C[C@H]1C(N)=O)[C@@H](C)O)C(C)C)[C@@H](C)O [PD111] (H-RCNTATCATQRLADFLRHSSNNK([AEEA-γGlu-C18 diacid])GPILPPTNVGSNT[Hyp]-NH2; disulfide 2-7) | 0.008 nM |
| CC[C@H](C)[C@H](NC(=O)[C@@H]1CCCN1C(=O)CNC(=O)[C@H](CCCCNC(=O)COCCOCCNC(=O)COCCOCCNC(=O)CC[C@H](NC(=O)CCCCCCCCCCCCCCCCC(=O)O)C(=O)O)NC(=O)[C@H](CC(N)=O)NC(=O)[C@H](CC(N)=O)NC(=O)[C@H](CO)NC(=O)[C@H](CO)NC(=O)[C@H](Cc1c[nH]cn1)NC(=O)[C@H](CCCNC(=N)N)NC(=O)[C@H](CC(C)C)NC(=O)[C@H](Cc1ccccc1)NC(=O)[C@H](CC(=O)O)NC(=O)[C@H](C)NC(=O)[C@H](CC(C)C)NC(=O)[C@H](CCCNC(=N)N)NC(=O)[C@H](CCC(N)=O)NC(=O)[C@@H](NC(=O)[C@H](C)NC(=O)[C@@H]1CSSC[C@H](NC(=O)[C@@H](N)CCCNC(=N)N)C(=O)N[C@@H](CC(N)=O)C(=O)N[C@@H]([C@@H](C)O)C(=O)N[C@@H](C)C(=O)N[C@@H]([C@@H](C)O)C(=O)N1)[C@@H](C)O)C(=O)N[C@@H](CC(C)C)C(=O)N1CCC[C@H]1C(=O)N1CCC[C@H]1C(=O)N[C@H](C(=O)N[C@@H](CC(N)=O)C(=O)N[C@H](C(=O)NCC(=O)N[C@@H](CO)C(=O)N[C@@H](CC(N)=O)C(=O)N[C@H](C(=O)N1C[C@H](O)C[C@H]1C(N)=O)[C@@H](C)O)C(C)C)[C@@H](C)O [PD085] (H-RCNTATCATQRLADFLRHSSNNK([AEEA-AEEA-γGlu-C18 diacid])GPILPPTNVGSNT[Hyp]-NH2; disulfide 2-7) | 0.005 nM |
| CC[C@H](C)[C@H](NC(=O)[C@@H]1CCCN1C(=O)[C@H](CCCCN)NC(=O)[C@H](CC(C)C)NC(=O)[C@H](CC(N)=O)NC(=O)[C@H](CC(N)=O)NC(=O)[C@H](CO)NC(=O)[C@H](CO)NC(=O)[C@H](Cc1c[nH]cn1)NC(=O)[C@H](CCCNC(=N)N)NC(=O)[C@H](CC(C)C)NC(=O)[C@H](Cc1ccccc1)NC(=O)[C@H](CC(=O)O)NC(=O)[C@H](C)NC(=O)[C@H](CC(C)C)NC(=O)[C@H](CCCNC(=N)N)NC(=O)[C@H](CCC(N)=O)NC(=O)[C@@H](NC(=O)[C@H](C)NC(=O)[C@@H]1CSSC[C@H](NC(=O)[C@H](CCCCN)NC(=O)CC[C@H](NC(=O)COCCOCCNC(=O)COCCOCCNC(=O)CCCCCCCCCCCCCCCCCCC(=O)O)C(=O)O)C(=O)N[C@@H](CC(N)=O)C(=O)N[C@@H]([C@@H](C)O)C(=O)N[C@@H](C)C(=O)N[C@@H]([C@@H](C)O)C(=O)N1)[C@@H](C)O)C(=O)N[C@@H](CC(C)C)C(=O)N1CCC[C@H]1C(=O)N1CCC[C@H]1C(=O)N[C@H](C(=O)N[C@@H](CC(N)=O)C(=O)N[C@H](C(=O)NCC(=O)N[C@@H](CO)C(=O)N[C@@H](CC(N)=O)C(=O)N[C@H](C(=O)N1CCC[C@H]1C(N)=O)[C@@H](C)O)C(C)C)[C@@H](C)O [PD188] ({C20 diacid-AEEA-AEEA-γGlu}-KCNTATCATQRLADFLRHSSNNLKPILPPTNVGSNTP-NH2; disulfide 2-7 (inferred)) | 0.025 nM |
| CC[C@H](C)[C@H](NC(=O)[C@@H]1CCCN1C(=O)CNC(=O)[C@H](CCCCNC(=O)CC[C@H](NC(=O)CCCCCCCCCCCCCCCCCCC(=O)O)C(=O)O)NC(=O)[C@H](CC(N)=O)NC(=O)[C@H](CC(N)=O)NC(=O)[C@H](CO)NC(=O)[C@H](CO)NC(=O)[C@H](Cc1c[nH]cn1)NC(=O)[C@H](CCCNC(=N)N)NC(=O)[C@H](CC(C)C)NC(=O)[C@H](Cc1ccccc1)NC(=O)[C@H](CC(=O)O)NC(=O)[C@H](C)NC(=O)[C@H](CC(C)C)NC(=O)[C@H](CCCNC(=N)N)NC(=O)[C@H](CCC(N)=O)NC(=O)[C@@H](NC(=O)[C@H](C)NC(=O)[C@@H]1CSSC[C@H](NC(=O)[C@@H](N)CCCNC(=N)N)C(=O)N[C@@H](CC(N)=O)C(=O)N[C@@H]([C@@H](C)O)C(=O)N[C@@H](C)C(=O)N[C@@H]([C@@H](C)O)C(=O)N1)[C@@H](C)O)C(=O)N[C@@H](CC(C)C)C(=O)N1CCC[C@H]1C(=O)N1CCC[C@H]1C(=O)N[C@H](C(=O)N[C@@H](CC(N)=O)C(=O)N[C@H](C(=O)NCC(=O)N[C@@H](CO)C(=O)N[C@@H](CC(N)=O)C(=O)N[C@H](C(=O)N1C[C@H](O)C[C@H]1C(N)=O)[C@@H](C)O)C(C)C)[C@@H](C)O [PD082] (H-RCNTATCATQRLADFLRHSSNNK([γGlu-C20 diacid])GPILPPTNVGSNT[Hyp]-NH2; disulfide 2-7) | 0.038 nM |
| CC[C@H](C)[C@H](NC(=O)[C@@H]1CCCN1C(=O)CN(C)C(=O)[C@H](CC(C)C)NC(=O)[C@H](CC(N)=O)NC(=O)[C@H](CC(N)=O)NC(=O)[C@H](CO)NC(=O)[C@H](CO)NC(=O)[C@H](Cc1c[nH]cn1)NC(=O)[C@H](CCCNC(=N)N)NC(=O)[C@H](CC(C)C)NC(=O)[C@H](Cc1ccccc1)NC(=O)[C@H](CC(=O)O)NC(=O)[C@H](C)NC(=O)[C@H](CC(C)C)NC(=O)[C@H](CCCNC(=N)N)NC(=O)[C@H](CCC(N)=O)NC(=O)[C@@H](NC(=O)[C@H](C)NC(=O)[C@@H]1CSSC[C@H](NC(=O)[C@H](CCCCN)NC(=O)CC[C@H](NC(=O)CCCCCCCCCCCCCCCCCCC(=O)O)C(=O)O)C(=O)N[C@@H](CC(N)=O)C(=O)N[C@@H]([C@@H](C)O)C(=O)N[C@@H](C)C(=O)N[C@@H]([C@@H](C)O)C(=O)N1)[C@@H](C)O)C(=O)N[C@@H](CC(C)C)C(=O)N1CCC[C@H]1C(=O)N1CCC[C@H]1C(=O)N[C@H](C(=O)N[C@@H](CC(N)=O)C(=O)N[C@H](C(=O)NCC(=O)N[C@@H](CO)C(=O)N[C@@H](CC(N)=O)C(=O)N[C@H](C(=O)N1CCC[C@H]1C(N)=O)[C@@H](C)O)C(C)C)[C@@H](C)O [PD172] ({C20 diacid-γGlu}-KCNTATCATQRLADFLRHSSNNL[Sar]PILPPTNVGSNTP-NH2; disulfide 2-7 (inferred)) | 0.075 nM |
| CC[C@H](C)[C@H](NC(=O)[C@@H]1CCCN1C(=O)[C@H](CCCCNC(=O)CC[C@H](NC(=O)CCCCCCCCCCCCCCCCCCC(=O)O)C(=O)O)NC(=O)[C@H](CC(C)C)NC(=O)[C@H](CC(N)=O)NC(=O)[C@H](CC(N)=O)NC(=O)[C@H](CO)NC(=O)[C@H](CO)NC(=O)[C@H](Cc1c[nH]cn1)NC(=O)[C@H](CCCNC(=N)N)NC(=O)[C@H](CC(C)C)NC(=O)[C@H](Cc1ccccc1)NC(=O)[C@H](CC(=O)O)NC(=O)[C@H](C)NC(=O)[C@H](CC(C)C)NC(=O)[C@H](CCCNC(=N)N)NC(=O)[C@H](CCC(N)=O)NC(=O)[C@@H](NC(=O)[C@H](C)NC(=O)[C@@H]1CSSC[C@H](NC(=O)[C@@H](N)Cc2c[nH]cn2)C(=O)N[C@@H](CC(N)=O)C(=O)N[C@@H]([C@@H](C)O)C(=O)N[C@@H](C)C(=O)N[C@@H]([C@@H](C)O)C(=O)N1)[C@@H](C)O)C(=O)N[C@@H](CC(C)C)C(=O)N1CCC[C@H]1C(=O)N1CCC[C@H]1C(=O)N[C@H](C(=O)N[C@@H](CC(N)=O)C(=O)N[C@H](C(=O)NCC(=O)N[C@@H](CO)C(=O)N[C@@H](CC(N)=O)C(=O)N[C@H](C(=O)N1C[C@H](O)C[C@H]1C(N)=O)[C@@H](C)O)C(C)C)[C@@H](C)O [PD078] (H-HCNTATCATQRLADFLRHSSNNLK([γGlu-C20 diacid])PILPPTNVGSNT[Hyp]-NH2; disulfide 2-7) | 0.035 nM |
| CC[C@H](C)[C@H](NC(=O)[C@@H]1CCCN1C(=O)[C@H](CCCCNC(=O)CC[C@H](NC(=O)CCCCCCCCCCCCCCCCCCC(=O)O)C(=O)O)NC(=O)[C@H](CC(C)C)NC(=O)[C@H](CC(N)=O)NC(=O)[C@H](CC(N)=O)NC(=O)[C@H](CO)NC(=O)[C@H](CO)NC(=O)[C@H](Cc1c[nH]cn1)NC(=O)[C@H](CCCNC(=N)N)NC(=O)[C@H](CC(C)C)NC(=O)[C@H](Cc1ccccc1)NC(=O)[C@H](CCC(=O)O)NC(=O)[C@H](C)NC(=O)[C@H](CC(C)C)NC(=O)[C@H](CCCNC(=N)N)NC(=O)[C@H](CCC(N)=O)NC(=O)[C@@H](NC(=O)[C@H](C)NC(=O)[C@@H]1CSSC[C@H](NC(=O)[C@@H](N)CCCNC(=N)N)C(=O)N[C@@H](CC(N)=O)C(=O)N[C@@H]([C@@H](C)O)C(=O)N[C@@H](C)C(=O)N[C@@H]([C@@H](C)O)C(=O)N1)[C@@H](C)O)C(=O)N[C@@H](CC(C)C)C(=O)N1CCC[C@H]1C(=O)N1CCC[C@H]1C(=O)N[C@H](C(=O)N[C@@H](CC(N)=O)C(=O)N[C@H](C(=O)NCC(=O)N[C@@H](CO)C(=O)N[C@@H](CC(N)=O)C(=O)N[C@H](C(=O)N1C[C@@H](O)C[C@H]1C(N)=O)[C@@H](C)O)C(C)C)[C@@H](C)O [PD055] (H-RCNTATCATQRLAEFLRHSSNNLK([γGlu-C20 diacid])PILPPTNVGSNT[cisHyp]-NH2; disulfide 2-7) | 0.909 nM |

— US20260166128A1, “HUMAN AMYLIN ANALOG, AND DERIVATIVE THEREOF AND USE THEREOF” (priority 2022, published 2026)
